Results on 14 compounds are retold here after patent US20240238423A9, “TETRAHYDROISOQUINOLINE HETEROBIFUNCTIONAL BCL-XL DEGRADERS” (Treeline Biosciences, Inc., priority 2022, published 2024).

The assay has as its target T1, Human BCL-XL protein (N-terminal HiBiT tagged BCL-XL in HT1080 cells) (Homo sapiens, UniProt Q07817).
T1 construct: expressed in transfected cells; host or cells: HT-1080 (ATCC CCL-121), stably transduced with lentivirus pLV-UBC-N-HiBiT-BCL-XL-PGK-puro and selected with puromycin
Nature of the assay: HiBiT based degradation assay. The conditions noted are these: HT1080 cells expressing HiBiT-BCL-XL; for Ymin (6 h) / Ymin (24 h): BCL-XL degradation normalized with DMSO control; for DC50: BCL-XL degradation. In kind it is cell-based. The gist of the method: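 HT1080 cells stably transduced by lentivirus with N-terminally HiBiT-tagged human BCL-XL and kept under 1 μg/mL puromycin selection were seeded at three thousand cells per well in 40 μL RPMI 1640 into 384-well plates pre-spotted with compounds across a concentration range. Luminescence was read on a PHERAstar FSX, normalized to DMSO, and fitted with a four-parameter logistic model.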

Where two headings read alike, the source gives them in different places. Bounds are passed on as bounds.

T1 sequence (Q07817 whole entry): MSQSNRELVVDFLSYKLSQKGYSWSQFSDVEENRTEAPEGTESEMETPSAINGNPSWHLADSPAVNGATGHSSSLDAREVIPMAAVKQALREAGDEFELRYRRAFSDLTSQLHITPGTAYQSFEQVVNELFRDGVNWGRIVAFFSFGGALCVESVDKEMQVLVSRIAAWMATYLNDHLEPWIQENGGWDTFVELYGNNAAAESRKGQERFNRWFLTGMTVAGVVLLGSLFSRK

With `Cc1c(OCCCN2CCN(CC(=O)Nc3cccc4c(C5CCC(=O)NC5=O)nn(C)c34)[C@H](C(F)(F)F)C2)cccc1-c1ccc(N2CCc3cccc(C(=O)Nc4nc5ccccc5s4)c3C2)nc1C(=O)O` (stereo partly drawn) [Compound 218b, 6-(8-(benzo[d]thiazol-2-ylcarbamoyl)-3,4-dihydroisoquinolin-2(1H)-yl)-3-(3-(3-((3S)-4-(2-((3-(2,6-dioxopiperidin-3-yl)-1-methyl-1H-indazol-7-yl)amino)-2-oxoethyl)-3-(trifluoromethyl)piperazin-1-yl)propoxy)-2-methylphenyl)picolinic acid], the “Ymin (6 h)” value (6 h) is on record as “C (Ymin ≥ 70%)”. Under “24 h”, the “Ymin (24 h)” value was “C (Ymin ≥ 70%)”. In addition, the DC50 by setting is: (6 h, read-out: EC50 (6 h)) 1000 to 10000 nM; (24 h, read-out: EC50 (24 h)) 100 to 1000 nM.
In the case of `Cc1c(OCC[C@@H]2CCN(CC(=O)Nc3ccc4c(C5CCC(=O)NC5=O)nn(C)c4c3)C2)cccc1-c1ccc(N2CCc3cccc(C(=O)Nc4nc5ccccc5s4)c3C2)nc1C(=O)O` (stereo partly drawn) [Compound 219a, 6-[8-(1,3-benzothiazol-2-ylcarbamoyl)-3,4-dihydro-1H-isoquinolin-2-yl]-3-[3-[2-[(3S)-1-[2-[[3-(2,6-dioxo-3-piperidyl)-1-methyl-indazol-6-yl]amino]-2-oxo-ethyl]pyrrolidin-3-yl]ethoxy]-2-methyl-phenyl]pyridine-2-carboxylic acid], the “Ymin (24 h)” value (24 h) is “A (Ymin < 50%)”. Moreover, the DC50 (24 h, read-out: EC50 (24 h)) is less than 100 nM.
As for `Cc1c(OCC[C@H]2CCN(CC(=O)Nc3ccc4c(C5CCC(=O)NC5=O)nn(C)c4c3)C2)cccc1-c1ccc(N2CCc3cccc(C(=O)Nc4nc5ccccc5s4)c3C2)nc1C(=O)O` (stereo partly drawn) [Compound 219b, 6-[8-(1,3-benzothiazol-2-ylcarbamoyl)-3,4-dihydro-1H-isoquinolin-2-yl]-3-[3-[2-[(3R)-1-[2-[[3-(2,6-dioxo-3-piperidyl)-1-methyl-indazol-6-yl]amino]-2-oxo-ethyl]pyrrolidin-3-yl]ethoxy]-2-methyl-phenyl]pyridine-2-carboxylic acid], the “Ymin (6 h)” value (6 h) is listed as “B (50% ≤ Ymin < 70%)”. Further, the “Ymin (24 h)” value (24 h) is reported as “A (Ymin < 50%)”. Further, the DC50 is less than 100 nM (6 h, read-out: EC50 (6 h)) and less than 100 nM (24 h, read-out: EC50 (24 h)).
On to `Cc1c(OCCCC2CCN(CCN3CCN(c4ccc5c(C6CCC(=O)NC6=O)nn(C)c5c4)CC3)CC2)cccc1-c1ccc(N2CCc3cccc(C(=O)Nc4nc5ccccc5s4)c3C2)nc1C(=O)O` (centres unmarked) [Compound 220, 6-[8-(1,3-benzothiazol-2-ylcarbamoyl)-3,4-dihydro-1H-isoquinolin-2-yl]-3-[3-[3-[1-[2-[4-[3-(2,6-dioxo-3-piperidyl)-1-methyl-indazol-6-yl]piperazin-1-yl]ethyl]-4-piperidyl]propoxy]-2-methyl-phenyl]pyridine-2-carboxylic acid], for which the “Ymin (24 h)” value (24 h) was “A (Ymin < 50%)”. The DC50 (24 h, read-out: EC50 (24 h)) is less than 100 nM.
In the same order, the values of `Cc1c(OCCCN2CCN(CC3CCN(c4cccc5c(C6CCC(=O)NC6=O)nn(C)c45)CC3)CC2)cccc1-c1ccc(N2CCc3cccc(C(=O)Nc4nc5ccccc5s4)c3C2)nc1C(=O)O` (centres unmarked) [Compound 221, 6-(8-(benzo[d]thiazol-2-ylcarbamoyl)-3,4-dihydroisoquinolin-2(1H)-yl)-3-(3-(3-(4-((1-(3-(2,6-dioxopiperidin-3-yl)-1-methyl-1H-indazol-7-yl)piperidin-4-yl)methyl)piperazin-1-yl)propoxy)-2-methylphenyl)picolinic acid] are “A (Ymin < 50%)” and less than 100 nM.
For `Cc1c(OCCCCCCN2CCN(c3ccc4c(C5CCC(=O)NC5=O)nn(C)c4c3)CC2)cccc1-c1ccc(N2CCc3cccc(C(=O)Nc4nc5ccccc5s4)c3C2)nc1C(=O)O` (centres unmarked) [Compound 222, 6-(8-(benzo[d]thiazol-2-ylcarbamoyl)-3,4-dihydroisoquinolin-2(1H)-yl)-3-(3-((6-(4-(3-(2,6-dioxopiperidin-3-yl)-1-methyl-1H-indazol-6-yl)piperazin-1-yl)hexyl)oxy)-2-methylphenyl)picolinic acid], the “Ymin (6 h)” value (6 h) is given as “B (50% ≤ Ymin < 70%)”. The “Ymin (24 h)” value (24 h) was “A (Ymin < 50%)”. Further, the DC50 runs as follows: (6 h, read-out: EC50 (6 h)) less than 100 nM; (24 h, read-out: EC50 (24 h)) less than 100 nM.
Consider `Cc1c(OCCC2CCN(CCC3CCN(c4ccc5c(C6CCC(=O)NC6=O)nn(C)c5c4)CC3)CC2)cccc1-c1ccc(N2CCc3cccc(C(=O)Nc4nc5ccccc5s4)c3C2)nc1C(=O)O` (centres unmarked) [Compound 223, 6-(8-(benzo[d]thiazol-2-ylcarbamoyl)-3,4-dihydroisoquinolin-2(1H)-yl)-3-(3-(2-(1-(2-(1-(3-(2,6-dioxopiperidin-3-yl)-1-methyl-1H-indazol-6-yl)piperidin-4-yl)ethyl)piperidin-4-yl)ethoxy)-2-methylphenyl)picolinic acid], for which, for the setting “24 h”, the “Ymin (24 h)” value is given as “A (Ymin < 50%)”. Further, the DC50 (24 h, read-out: EC50 (24 h)) is less than 100 nM.
Take `Cc1c(OCCO[C@@H]2C[C@H]3CC[C@@H](C2)N3CC(=O)Nc2cccc3c(C4CCC(=O)NC4=O)nn(C)c23)cccc1-c1ccc(N2CCc3cccc(C(=O)Nc4nc5ccccc5s4)c3C2)nc1C(=O)O` (stereo partly drawn) [Compound 224a, 6-(8-(benzo[d]thiazol-2-ylcarbamoyl)-3,4-dihydroisoquinolin-2(1H)-yl)-3-(3-(2-(((1R,3s,5S)-8-(2-((3-(2,6-dioxopiperidin-3-yl)-1-methyl-1H-indazol-7-yl)amino)-2-oxoethyl)-8-azabicyclo[3.2.1]octan-3-yl)oxy)ethoxy)-2-methylphenyl)picolinic acid]: where the note is “6 h”, the “Ymin (6 h)” value is recorded as “C (Ymin ≥ 70%)”. The “Ymin (24 h)” value (24 h) is given as “B (50% ≤ Ymin < 70%)”. Further, the DC50 runs as follows: (6 h, read-out: EC50 (6 h)) 1000 to 10000 nM; (24 h, read-out: EC50 (24 h)) less than 100 nM.
For `Cc1c(OCCO[C@H]2C[C@H]3CC[C@@H](C2)N3CC(=O)Nc2cccc3c(C4CCC(=O)NC4=O)nn(C)c23)cccc1-c1ccc(N2CCc3cccc(C(=O)Nc4nc5ccccc5s4)c3C2)nc1C(=O)O` (stereo partly drawn) [Compound 224b, 6-(8-(benzo[d]thiazol-2-ylcarbamoyl)-3,4-dihydroisoquinolin-2(1H)-yl)-3-(3-(2-(((1R,3r,5S)-8-(2-((3-(2,6-dioxopiperidin-3-yl)-1-methyl-1H-indazol-7-yl)amino)-2-oxoethyl)-8-azabicyclo[3.2.1]octan-3-yl)oxy)ethoxy)-2-methylphenyl)picolinic acid], under “24 h”, the “Ymin (24 h)” value is on record as “B (50% ≤ Ymin < 70%)”. Also, where the note is “24 h, read-out: EC50 (24 h)”, the DC50 was less than 100 nM.
On the same counts, the results for `Cc1c(OCC2CC3(CCN(CCN4CCN(c5ccc6c(C7CCC(=O)NC7=O)nn(C)c6c5)CC4)CC3)C2)cccc1-c1ccc(N2CCc3cccc(C(=O)Nc4nc5ccccc5s4)c3C2)nc1C(=O)O` (centres unmarked) [Compound 225, 6-(8-(benzo[d]thiazol-2-ylcarbamoyl)-3,4-dihydroisoquinolin-2(1H)-yl)-3-(3-((7-(2-(4-(3-(2,6-dioxopiperidin-3-yl)-1-methyl-1H-indazol-6-yl)piperazin-1-yl)ethyl)-7-azaspiro[3.5]nonan-2-yl)methoxy)-2-methylphenyl)picolinic acid] are “A (Ymin < 50%)” and less than 100 nM.
As for `Cc1c(OCC2CC3(CCN(CC(=O)Nc4cccc5c(C6CCC(=O)NC6=O)nn(C)c45)CC3)C2)cccc1-c1ccc(N2CCc3cccc(C(=O)Nc4nc5ccccc5s4)c3C2)nc1C(=O)O` (centres unmarked) [Compound 226, 6-[8-(1,3-benzothiazol-2-ylcarbamoyl)-3,4-dihydro-1H-isoquinolin-2-yl]-3-[3-[[7-[2-[[3-(2,6-dioxo-3-piperidyl)-1-methyl-indazol-7-yl]amino]-2-oxo-ethyl]-7-azaspiro[3.5]nonan-2-yl]methoxy]-2-methyl-phenyl]pyridine-2-carboxylic acid], where the note is “6 h”, the “Ymin (6 h)” value is on record as “C (Ymin ≥ 70%)”. The “Ymin (24 h)” value (24 h) is recorded as “B (50% ≤ Ymin < 70%)”. The DC50 is, setting by setting: (6 h, read-out: EC50 (6 h)) less than 100 nM; (24 h, read-out: EC50 (24 h)) 100 to 1000 nM.
With `Cc1c(O[C@H]2CC[C@H](CCCC(=O)N3CCN(c4ccc5c(C6CCC(=O)NC6=O)nn(C)c5c4)CC3)CC2)cccc1-c1ccc(N2CCc3cccc(C(=O)Nc4nc5ccccc5s4)c3C2)nc1C(=O)O` (some centres unmarked) [Compound 227a, 6-(8-(benzo[d]thiazol-2-ylcarbamoyl)-3,4-dihydroisoquinolin-2(1H)-yl)-3-(3-(((1s,4r)-4-(4-(4-(3-(2,6-dioxopiperidin-3-yl)-1-methyl-1H-indazol-6-yl)piperazin-1-yl)-4-oxobutyl)cyclohexyl)oxy)-2-methylphenyl)picolinic acid], the “Ymin (24 h)” value (24 h) is recorded as “A (Ymin < 50%)”. Also, for the setting “24 h, read-out: EC50 (24 h)”, the DC50 was less than 100 nM.
On the same counts, the results for `Cc1c(OCCN2CCN(CC3CCN(c4cccc5c(C6CCC(=O)NC6=O)nn(C)c45)CC3)CC2)cccc1-c1ccc(N2CCc3cccc(C(=O)Nc4nc5ccccc5s4)c3C2)nc1C(=O)O` (centres unmarked) [Compound 228, 6-(8-(benzo[d]thiazol-2-ylcarbamoyl)-3,4-dihydroisoquinolin-2(1H)-yl)-3-(3-(2-(4-((1-(3-(2,6-dioxopiperidin-3-yl)-1-methyl-1H-indazol-7-yl)piperidin-4-yl)methyl)piperazin-1-yl)ethoxy)-2-methylphenyl)picolinic acid] are “B (50% ≤ Ymin < 70%)” and less than 100 nM.
In the same order, the values of `Cc1c(OCCC(F)(F)C2CCN(CC(=O)Nc3ccc4c(C5CCC(=O)NC5=O)nn(C)c4c3)CC2)cccc1-c1ccc(N2CCc3cccc(C(=O)Nc4nc5ccccc5s4)c3C2)nc1C(=O)O` (centres unmarked) [Compound 229, 6-(8-(benzo[d]thiazol-2-ylcarbamoyl)-3,4-dihydroisoquinolin-2(1H)-yl)-3-(3-(3-(1-(2-((3-(2,6-dioxopiperidin-3-yl)-1-methyl-1H-indazol-6-yl)amino)-2-oxoethyl)piperidin-4-yl)-3,3-difluoropropoxy)-2-methylphenyl)picolinic acid] are “B (50% ≤ Ymin < 70%)” and less than 100 nM.
